From patent US12466822B2, “Heterocyclic compounds as immunomodulators” (Incyte Corporation, priority 2016, dated 2025)

Biological target: T1, PD-1/PD-L1 protein/protein interaction (recombinant human PD-L1 protein (19-238), recombinant human PD-1 protein (25-167)) (Homo sapiens, UniProt Q9NZQ7)
T1 construct: Recombinant human PD-L1 protein (19-238) with a His-tag at the C-terminus; purchased AcroBiosystems PD1-H5229 (PD-L1-His); PD1-H5257 (PD-1-Fc)
Experiment: PD-1/PD-L1 Homogeneous Time-Resolved Fluorescence (HTRF) Binding Assay
Settings: 25° C., PBS buffer (pH 7.4), 40 minutes preincubation with inhibitors
Protocol: The assays were conducted in a standard black 384-well polystyrene plate with a final volume of 20 μL. Inhibitors were first serially diluted in DMSO and then added to the plate wells before the addition of other reaction components. The final concentration of DMSO in the assay was 1%. The assays were carried out at 25° C. in the PBS buffer (pH 7.4) with 0.05% Tween-20 and 0.1% BSA. Recombinant human PD-L1 protein (19-238) with a His-tag at the C-terminus was purchased from AcroBiosystems (PD1-H5229). Recombinant human PD-1 protein (25-167) with Fc tag at the C-terminus was also purchased from AcroBiosystems (PD1-H5257). PD-L1 and PD-1 proteins were diluted in the assay buffer and 10 μL was added to the plate well. Plates were centrifuged and proteins were preincubated with inhibitors for 40 minutes. The incubation was followed by the addition of 10 μL of HTRF detection buffer supplemented with Europium cryptate-labeled anti-human IgG (PerkinElmer-AD0212) specific for Fc and anti-His antibody conjugated to SureLight®-Allophycocyanin (APC, PerkinElmer-AD0059H). After centrifugation, the plate was incubated at 25° C. for 60 min. before reading on a PHERAstar FS plate reader (665 nm/620 nm ratio). Final concentrations in the assay were […], 10 nM PD-L1, 1 nM europium anti-human IgG and 20 nM anti-His-Allophycocyanin. IC50 determination was performed by fitting the curve of percent control activity versus the log of the inhibitor concentration using the GraphPad Prism 5.0 software.

T1 sequence (Q9NZQ7 19-238): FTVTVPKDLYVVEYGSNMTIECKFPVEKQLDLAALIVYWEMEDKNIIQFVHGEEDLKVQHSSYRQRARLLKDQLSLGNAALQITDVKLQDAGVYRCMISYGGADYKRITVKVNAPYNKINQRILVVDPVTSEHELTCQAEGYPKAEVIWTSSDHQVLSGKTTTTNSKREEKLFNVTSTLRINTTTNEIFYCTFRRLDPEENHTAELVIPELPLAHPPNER

IC50, ≤ 10 nM:
Cc1c(Nc2nccc3cc(CN4CC[C@@](C)(C(=O)O)C4)cnc23)cccc1-c1cccc(NC(=O)c2nc3c(n2C)CCN(C)C3)c1Cl [Example 33, (R)-1-((8-(2′-chloro-3′-(1,5-dimethyl-4,5,6,7-tetrahydro-1H-imidazo[4,5-c]pyridine-2-carboxamido)-2-methylbiphenyl-3-ylamino)-1,7-naphthyridin-3-yl)methyl)-3-methylpyrrolidine-3-carboxylic acid]
Cc1c(Nc2nccc3cc(CN4CC[C@@H](C(=O)O)C4)cnc23)cccc1-c1cccc(-c2nc3c(s2)CNCC3)c1C [Example 34, (R)-1-((8-((2,2′-dimethyl-3′-(4,5,6,7-tetrahydrothiazolo[5,4-c]pyridin-2-yl)-[1,1′-biphenyl]-3-yl)amino)-1,7-naphthyridin-3-yl)methyl)pyrrolidine-3-carboxylic acid]
Cc1c(Nc2nccc3cc(CN4CC[C@@H](O)C4)cnc23)cccc1-c1cccc(-c2nc3c(s2)CNCC3)c1C [Example 35, (R)-1-((8-((2,2′-dimethyl-3′-(4,5,6,7-tetrahydrothiazolo[5,4-c]pyridin-2-yl)-[1,1′-biphenyl]-3-yl)amino)-1,7-naphthyridin-3-yl)methyl)pyrrolidin-3-ol]
Cc1c(Nc2nccc3cc(CN4CC[C@H](O)C4)cnc23)cccc1-c1cccc(-c2nc3c(s2)CNCC3)c1C [Example 36, (S)-1-((8-((2,2′-dimethyl-3′-(4,5,6,7-tetrahydrothiazolo[5,4-c]pyridin-2-yl)-[1,1′-biphenyl]-3-yl)amino)-1,7-naphthyridin-3-yl)methyl)pyrrolidin-3-ol]
Cc1c(Nc2nccc3cc(CN4CC[C@@H](O)C4)cnc23)cccc1-c1cccc(-c2nc3c(o2)CN(C(=O)CN(C)C)C3)c1C [Example 37, (R)-2-(dimethylamino)-1-(2-(3′-((3-((3-hydroxypyrrolidin-1-yl)methyl)-1,7-naphthyridin-8-yl)amino)-2,2′-dimethyl-[1,1′-biphenyl]-3-yl)-4,6-dihydro-5H-pyrrolo[3,4-d]oxazol-5-yl)ethan-1-one]
Cc1c(Nc2nccc3cc(CN4CC[C@H](O)C4)cnc23)cccc1-c1cccc(-c2nc3c(o2)CN(C(=O)CN(C)C)C3)c1C [Example 38, (S)-2-(dimethylamino)-1-(2-(3′-((3-((3-hydroxypyrrolidin-1-yl)methyl)-1,7-naphthyridin-8-yl)amino)-2,2′-dimethyl-[1,1′-biphenyl]-3-yl)-4,6-dihydro-5H-pyrrolo[3,4-d]oxazol-5-yl)ethan-1-one]
Cc1c(Nc2nccc3cc(CN4CC[C@@H](O)C4)cnc23)cccc1-c1cccc(-c2nc3c(o2)CN(C(=O)CN2CC(C(=O)O)C2)C3)c1C [Example 39, (R)-1-(2-(2-(3′-((3-((3-hydroxypyrrolidin-1-yl)methyl)-1,7-naphthyridin-8-yl)amino)-2,2′-dimethyl-[1,1′-biphenyl]-3-yl)-4,6-dihydro-5H-pyrrolo[3,4-d]oxazol-5-yl)-2-oxoethyl)azetidine-3-carboxylic acid]
Cc1c(Nc2nccc3cc(CN4CC[C@@H](O)C4)cnc23)cccc1-c1cccc(-c2nc3c(o2)CN(C(=O)CN2CC[C@H](C(=O)O)C2)C3)c1C [Example 40, (S)-1-(2-(2-(3′-((3-(((R)-3-hydroxypyrrolidin-1-yl)methyl)-1,7-naphthyridin-8-yl)amino)-2,2′-dimethyl-[1,1′-biphenyl]-3-yl)-4,6-dihydro-5H-pyrrolo[3,4-d]oxazol-5-yl)-2-oxoethyl)pyrrolidine-3-carboxylic acid]
Cc1c(Nc2nccc3cc(CN4CC[C@@H](O)C4)cnc23)cccc1-c1cccc(-c2nc3c(o2)CN(C(=O)CN2CC[C@@H](C(=O)O)C2)C3)c1C [Example 41, (R)-1-(2-(2-(3′-((3-(((R)-3-hydroxypyrrolidin-1-yl)methyl)-1,7-naphthyridin-8-yl)amino)-2,2′-dimethyl-[1,1′-biphenyl]-3-yl)-4,6-dihydro-5H-pyrrolo[3,4-d]oxazol-5-yl)-2-oxoethyl)pyrrolidine-3-carboxylic acid]
Cc1c(Nc2nccc3cc(CN4CC[C@@H](O)C4)cnc23)cccc1-c1cccc(-c2nc3c(o2)CN(C(=O)CN2CCCC[C@H]2C(=O)O)C3)c1C [Example 42, (S)-1-(2-(2-(3′-((3-(((R)-3-hydroxypyrrolidin-1-yl)methyl)-1,7-naphthyridin-8-yl)amino)-2,2′-dimethyl-[1,1′-biphenyl]-3-yl)-4,6-dihydro-5H-pyrrolo[3,4-d]oxazol-5-yl)-2-oxoethyl)piperidine-2-carboxylic acid]
Cc1c(COc2cc(OCc3cncc(C#N)c3)c(CN3CCCC[C@H]3C(=O)O)cc2Cl)cccc1-c1cccc(Nc2nccc3cc(CN4CC[C@@H](O)C4)cnc23)c1C [Example 43, (S)-1-(5-chloro-2-((5-cyanopyridin-3-yl)methoxy)-4-((3′-((3-(((R)-3-hydroxypyrrolidin-1-yl)methyl)-1,7-naphthyridin-8-yl)amino)-2,2′-dimethyl-[1,1′-biphenyl]-3-yl)methoxy)benzyl)piperidine-2-carboxylic acid]
Cc1c(COc2cc(OCc3cncc(C#N)c3)c(CN3CC[C@@H](C(=O)O)C3)cc2Cl)cccc1-c1cccc(Nc2nccc3cc(CN4CC[C@@H](O)C4)cnc23)c1C [Example 44, (R)-1-(5-chloro-2-((5-cyanopyridin-3-yl)methoxy)-4-((3′-((3-(((R)-3-hydroxypyrrolidin-1-yl)methyl)-1,7-naphthyridin-8-yl)amino)-2,2′-dimethyl-[1,1′-biphenyl]-3-yl)methoxy)benzyl)pyrrolidine-3-carboxylic acid]
Cc1c(Nc2nccc3cc(CN4CC[C@@](C)(C(=O)O)C4)cnc23)cccc1-c1cccc(NC(=O)c2nc3c(n2C)CCNC3)c1Cl [Example 45, (R)-1-((8-(2′-Chloro-2-methyl-3′-(1-methyl-4,5,6,7-tetrahydro-1H-imidazo[4,5-c]pyridine-2-carboxamido)biphenyl-3-ylamino)-1,7-naphthyridin-3-yl)methyl)-3-methylpyrrolidine-3-carboxylic acid]
Cc1c(NC(=O)c2nc3c(n2C)CCN(C)C3)cccc1-c1cccc(Nc2nccc3cc(CN4CC[C@@H](C(=O)O)C4)cnc23)c1C [Example 46, (R)-1-((8-(3′-(1,5-dimethyl-4,5,6,7-tetrahydro-1H-imidazo[4,5-c]pyridine-2-carboxamido)-2,2′-dimethylbiphenyl-3-ylamino)-1,7-naphthyridin-3-yl)methyl)pyrrolidine-3-carboxylic acid]
Cc1c(Nc2nccc3cc(CN4CC[C@@H](O)C4)cnc23)cccc1-c1cccc(NC(=O)c2nc3c(n2C)CCN(C[C@H]2CC[C@H](C(=O)O)CC2)C3)c1Cl [Example 47, trans-4-((2-(2-chloro-3′-(3-(((R)-3-hydroxypyrrolidin-1-yl)methyl)-1,7-naphthyridin-8-ylamino)-2′-methylbiphenyl-3-ylcarbamoyl)-1-methyl-6,7-dihydro-1H-imidazo[4,5-c]pyridin-5(4H)-yl)methyl)cyclohexanecarboxylic acid]
Cc1c(Nc2nccc3cc(CN4CC[C@@H](O)C4)cnc23)cccc1-c1cccc(NC(=O)c2nc3c(n2C)CCN(C[C@H]2CC[C@@H](C(=O)O)CC2)C3)c1Cl [Example 48, cis-4-((2-(2-chloro-3′-(3-(((R)-3-hydroxypyrrolidin-1-yl)methyl)-1,7-naphthyridin-8-ylamino)-2′-methylbiphenyl-3-ylcarbamoyl)-1-methyl-6,7-dihydro-1H-imidazo[4,5-c]pyridin-5(4H)-yl)methyl)cyclohexanecarboxylic acid]
Cc1c(Nc2nccc3cc(CN4CCCC4)cnc23)cccc1-c1cccc(NC(=O)c2nc3c(n2C)CCN(C[C@H]2CC[C@@H](C(=O)O)CC2)C3)c1Cl [Example 49, cis-4-((2-(2-chloro-2′-methyl-3′-(3-(pyrrolidin-1-ylmethyl)-1,7-naphthyridin-8-ylamino)biphenyl-3-ylcarbamoyl)-1-methyl-6,7-dihydro-1H-imidazo[4,5-c]pyridin-5(4H)-yl)methyl)cyclohexanecarboxylic acid]
Cc1c(Nc2nccc3cc(CN[C@@H](C)CO)cnc23)cccc1-c1cccc(NC(=O)c2nc3c(n2C)CCN(C[C@H]2CC[C@H](C(=O)O)CC2)C3)c1Cl [Example 50, trans-4-((2-(2-chloro-3′-(3-(((S)-1-hydroxypropan-2-ylamino)methyl)-1,7-naphthyridin-8-ylamino)-2′-methylbiphenyl-3-ylcarbamoyl)-1-methyl-6,7-dihydro-1H-imidazo[4,5-c]pyridin-5(4H)-yl)methyl)cyclohexanecarboxylic acid]
